According to ChEMBL document CHEMBL3745672, “Novel compounds reducing IRS-1 serine phosphorylation for treatment of diabetes” (Bioorg Med Chem Lett, 2016):
pIC50: −log10 of the molar value.

Legend:
[1] = biological target: Mast/stem cell growth factor receptor Kit (Homo sapiens) (UniProt P10721); assay: Inhibition of cKIT (unknown origin) at 10 uM
[2] = biological target: Tyrosine-protein kinase CSK (Homo sapiens) (UniProt P41240); assay: Inhibition of CSK (unknown origin) at 10 uM
[3] = biological target: Epithelial discoidin domain-containing receptor 1 (Homo sapiens) (UniProt Q08345); assay: Inhibition of DDR1 (unknown origin) at 10 uM
[4] = biological target: Receptor tyrosine-protein kinase erbB-2 (Homo sapiens) (UniProt P04626); assay: Inhibition of ERBB2 (unknown origin) at 10 uM
[5] = biological target: Fibroblast growth factor receptor 3 (Homo sapiens) (UniProt P22607); assay: Inhibition of FGFR3 (unknown origin) at 10 uM
[6] = biological target: T1, Tyrosine-protein kinase JAK3 (Homo sapiens) (UniProt P52333); assay: Inhibition of JAK3 (unknown origin) at 10 uM
T1 sequence (whole entry): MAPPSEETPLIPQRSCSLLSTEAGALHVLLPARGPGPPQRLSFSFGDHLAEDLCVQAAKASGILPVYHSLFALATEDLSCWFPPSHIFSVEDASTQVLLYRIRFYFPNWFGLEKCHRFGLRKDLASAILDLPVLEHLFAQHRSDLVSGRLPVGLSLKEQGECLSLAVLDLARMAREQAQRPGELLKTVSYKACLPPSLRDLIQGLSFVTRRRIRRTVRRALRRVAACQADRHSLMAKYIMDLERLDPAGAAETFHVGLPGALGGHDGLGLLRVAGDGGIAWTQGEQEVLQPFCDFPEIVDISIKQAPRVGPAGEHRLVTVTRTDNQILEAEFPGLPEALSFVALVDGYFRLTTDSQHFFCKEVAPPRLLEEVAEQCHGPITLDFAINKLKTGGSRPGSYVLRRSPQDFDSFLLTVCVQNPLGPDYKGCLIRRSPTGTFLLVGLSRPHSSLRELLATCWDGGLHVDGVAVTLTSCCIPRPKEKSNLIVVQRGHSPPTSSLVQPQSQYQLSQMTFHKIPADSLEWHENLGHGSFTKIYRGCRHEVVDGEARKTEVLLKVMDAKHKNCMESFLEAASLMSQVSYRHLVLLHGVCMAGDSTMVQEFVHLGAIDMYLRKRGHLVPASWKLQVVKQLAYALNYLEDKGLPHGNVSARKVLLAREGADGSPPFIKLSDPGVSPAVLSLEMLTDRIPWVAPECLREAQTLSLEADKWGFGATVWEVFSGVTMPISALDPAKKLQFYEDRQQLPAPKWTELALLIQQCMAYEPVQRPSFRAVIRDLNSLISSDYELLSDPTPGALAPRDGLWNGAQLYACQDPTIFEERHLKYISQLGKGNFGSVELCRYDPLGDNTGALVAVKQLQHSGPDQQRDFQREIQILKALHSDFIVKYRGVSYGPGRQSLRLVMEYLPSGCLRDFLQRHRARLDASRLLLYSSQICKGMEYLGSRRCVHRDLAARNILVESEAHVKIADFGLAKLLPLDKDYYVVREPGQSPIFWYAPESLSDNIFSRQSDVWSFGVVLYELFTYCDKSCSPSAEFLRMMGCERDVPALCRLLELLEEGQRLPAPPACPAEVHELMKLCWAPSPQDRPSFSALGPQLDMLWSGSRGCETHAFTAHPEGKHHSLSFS

[7] = biological target: Serine/threonine-protein kinase mTOR (Homo sapiens) (UniProt P42345); assay: Inhibition of mTOR (unknown origin) at 10 uM
[8] = biological target: Serine/threonine-protein kinase PAK 4 (Homo sapiens) (UniProt O96013); assay: Inhibition of PAK4 (unknown origin) at 10 uM
[9] = biological target: Serine/threonine-protein kinase pim-1 (Homo sapiens) (UniProt P11309); assay: Inhibition of PIM1 (unknown origin) at 10 uM
[10] = biological target: Protein kinase C alpha type (Homo sapiens) (UniProt P17252); assay: Inhibition of PKCalpha (unknown origin) at 10 uM
[11] = biological target: Proto-oncogene tyrosine-protein kinase Src (Homo sapiens) (UniProt P12931); assay: Inhibition of SRC (unknown origin) at 10 uM
[12] = biological target: Angiopoietin-1 receptor (Homo sapiens) (UniProt Q02763); assay: Inhibition of TIE2 (unknown origin) at 10 uM
[13] = biological target: Vascular endothelial growth factor receptor 2 (Homo sapiens) (UniProt P35968); assay: Inhibition of VEGFR2 (unknown origin) at 10 uM
[14] = biological target: Death-associated protein kinase 3 (Homo sapiens) (UniProt O43293); assay: Inhibition of DAPK3 (unknown origin) at 10 uM
[15] = system: HEK293; assay: Cytotoxicity against HEK293 after 24 hrs by CellTiter-Glo luminescent cell viability assay; format: cell-based; conditions: Homo sapiens, HEK293, 24 h
[16] = biological target: T2, Mitogen-activated protein kinase 8 (Homo sapiens, UniProt P45983); assay: Inhibition of JNK1 (unknown origin)
[17] = biological target: T2, Mitogen-activated protein kinase 8; assay: Inhibition of JNK1 (unknown origin) expressed in HEK293 cells assessed as anisomycin-induced IRS-1(Ser307) phosphorylation at 10 uM incubated for 30 mins by Western blot analysis relative to anisomycin; format: cell-based; set-up: scale not given: the % may be the effect or the level left
[18] = biological target: T2, Mitogen-activated protein kinase 8; assay: Inhibition of JNK1 (unknown origin) expressed in HEK293 cells assessed as anisomycin-induced JNK phosphorylation at 10 uM incubated for 30 mins by Western blot analysis relative to anisomycin; format: cell-based; set-up: scale not given: the % may be the effect or the level left
[19] = biological target: T3, Aurora kinase A (Homo sapiens) (UniProt O14965); assay: Inhibition of AurA (unknown origin) at 10 uM
T3 sequence (whole entry): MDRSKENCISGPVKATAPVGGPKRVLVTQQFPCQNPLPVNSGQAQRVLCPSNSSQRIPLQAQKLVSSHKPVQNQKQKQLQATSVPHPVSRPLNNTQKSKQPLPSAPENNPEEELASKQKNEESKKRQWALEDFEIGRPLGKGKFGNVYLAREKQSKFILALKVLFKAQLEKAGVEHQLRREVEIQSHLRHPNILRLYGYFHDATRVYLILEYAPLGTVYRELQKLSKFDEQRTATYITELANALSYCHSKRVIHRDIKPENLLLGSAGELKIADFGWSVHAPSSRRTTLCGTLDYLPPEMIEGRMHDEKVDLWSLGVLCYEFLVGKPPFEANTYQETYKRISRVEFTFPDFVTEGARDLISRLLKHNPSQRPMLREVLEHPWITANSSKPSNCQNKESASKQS

[20] = biological target: Platelet-derived growth factor receptor beta (Homo sapiens) (UniProt P09619); assay: Inhibition of PDGFRbeta (unknown origin) at 10 uM
[21] = biological target: Cyclin-dependent kinase 4/cyclin D1 (Homo sapiens) (UniProt P11802+P24385); assay: Inhibition of CDK4/cyclin D1 (unknown origin) at 10 uM; format: protein-complex assay

Sequence of Platelet-derived growth factor receptor beta (Homo sapiens) (P09619 whole entry): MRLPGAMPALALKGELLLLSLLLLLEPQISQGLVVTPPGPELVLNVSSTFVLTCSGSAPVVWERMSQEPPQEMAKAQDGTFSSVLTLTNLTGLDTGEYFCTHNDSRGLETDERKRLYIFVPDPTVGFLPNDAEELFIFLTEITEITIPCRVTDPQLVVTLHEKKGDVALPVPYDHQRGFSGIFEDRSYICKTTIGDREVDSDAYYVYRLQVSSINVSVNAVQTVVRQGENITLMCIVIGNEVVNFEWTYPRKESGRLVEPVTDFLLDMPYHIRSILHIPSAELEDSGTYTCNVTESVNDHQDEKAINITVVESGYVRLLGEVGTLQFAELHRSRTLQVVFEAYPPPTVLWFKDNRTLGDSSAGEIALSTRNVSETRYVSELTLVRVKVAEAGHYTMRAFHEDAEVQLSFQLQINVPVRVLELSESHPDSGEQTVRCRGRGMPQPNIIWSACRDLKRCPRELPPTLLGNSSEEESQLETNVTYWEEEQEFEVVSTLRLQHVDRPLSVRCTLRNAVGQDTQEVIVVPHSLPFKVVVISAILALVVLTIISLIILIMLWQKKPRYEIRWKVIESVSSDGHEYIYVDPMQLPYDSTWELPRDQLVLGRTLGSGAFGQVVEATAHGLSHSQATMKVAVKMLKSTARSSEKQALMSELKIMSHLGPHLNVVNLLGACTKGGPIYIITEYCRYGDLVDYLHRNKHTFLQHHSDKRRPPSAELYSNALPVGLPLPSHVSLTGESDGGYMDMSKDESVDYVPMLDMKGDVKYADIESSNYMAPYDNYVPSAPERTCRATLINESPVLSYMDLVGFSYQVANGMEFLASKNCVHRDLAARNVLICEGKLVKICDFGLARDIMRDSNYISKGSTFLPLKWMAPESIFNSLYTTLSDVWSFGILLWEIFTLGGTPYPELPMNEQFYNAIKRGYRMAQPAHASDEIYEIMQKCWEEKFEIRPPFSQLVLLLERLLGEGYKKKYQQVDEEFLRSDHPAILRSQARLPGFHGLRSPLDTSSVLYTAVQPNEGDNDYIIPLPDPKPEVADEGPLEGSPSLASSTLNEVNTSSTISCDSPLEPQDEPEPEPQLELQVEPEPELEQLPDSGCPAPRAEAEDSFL
Sequence of Serine/threonine-protein kinase pim-1 (Homo sapiens) (P11309 whole entry, looked up): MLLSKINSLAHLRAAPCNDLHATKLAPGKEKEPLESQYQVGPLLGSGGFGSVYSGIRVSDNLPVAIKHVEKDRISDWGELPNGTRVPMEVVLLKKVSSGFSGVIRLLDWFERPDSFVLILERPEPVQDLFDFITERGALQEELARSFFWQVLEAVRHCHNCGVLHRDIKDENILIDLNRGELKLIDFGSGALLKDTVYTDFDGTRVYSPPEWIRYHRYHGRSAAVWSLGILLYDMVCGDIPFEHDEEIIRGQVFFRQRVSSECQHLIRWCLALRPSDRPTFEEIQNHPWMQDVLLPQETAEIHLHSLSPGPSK
Sequence of Serine/threonine-protein kinase PAK 4 (Homo sapiens) (O96013 whole entry, looked up): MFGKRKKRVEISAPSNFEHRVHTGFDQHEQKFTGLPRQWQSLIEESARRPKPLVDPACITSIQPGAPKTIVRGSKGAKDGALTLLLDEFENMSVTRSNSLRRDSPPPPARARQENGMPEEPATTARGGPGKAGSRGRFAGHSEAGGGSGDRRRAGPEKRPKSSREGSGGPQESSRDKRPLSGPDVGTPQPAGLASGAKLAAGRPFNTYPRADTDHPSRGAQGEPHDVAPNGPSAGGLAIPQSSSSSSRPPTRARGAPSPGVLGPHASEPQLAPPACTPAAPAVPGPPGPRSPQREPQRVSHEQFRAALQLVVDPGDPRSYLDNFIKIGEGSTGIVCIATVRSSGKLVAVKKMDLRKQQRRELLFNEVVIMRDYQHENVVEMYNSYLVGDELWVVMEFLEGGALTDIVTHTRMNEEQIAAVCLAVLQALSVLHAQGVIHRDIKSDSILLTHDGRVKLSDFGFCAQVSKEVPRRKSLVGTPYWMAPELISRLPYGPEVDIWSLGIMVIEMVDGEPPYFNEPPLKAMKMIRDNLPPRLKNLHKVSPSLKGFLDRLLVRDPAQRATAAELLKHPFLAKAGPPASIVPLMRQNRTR
Sequence of Vascular endothelial growth factor receptor 2 (Homo sapiens) (P35968 whole entry): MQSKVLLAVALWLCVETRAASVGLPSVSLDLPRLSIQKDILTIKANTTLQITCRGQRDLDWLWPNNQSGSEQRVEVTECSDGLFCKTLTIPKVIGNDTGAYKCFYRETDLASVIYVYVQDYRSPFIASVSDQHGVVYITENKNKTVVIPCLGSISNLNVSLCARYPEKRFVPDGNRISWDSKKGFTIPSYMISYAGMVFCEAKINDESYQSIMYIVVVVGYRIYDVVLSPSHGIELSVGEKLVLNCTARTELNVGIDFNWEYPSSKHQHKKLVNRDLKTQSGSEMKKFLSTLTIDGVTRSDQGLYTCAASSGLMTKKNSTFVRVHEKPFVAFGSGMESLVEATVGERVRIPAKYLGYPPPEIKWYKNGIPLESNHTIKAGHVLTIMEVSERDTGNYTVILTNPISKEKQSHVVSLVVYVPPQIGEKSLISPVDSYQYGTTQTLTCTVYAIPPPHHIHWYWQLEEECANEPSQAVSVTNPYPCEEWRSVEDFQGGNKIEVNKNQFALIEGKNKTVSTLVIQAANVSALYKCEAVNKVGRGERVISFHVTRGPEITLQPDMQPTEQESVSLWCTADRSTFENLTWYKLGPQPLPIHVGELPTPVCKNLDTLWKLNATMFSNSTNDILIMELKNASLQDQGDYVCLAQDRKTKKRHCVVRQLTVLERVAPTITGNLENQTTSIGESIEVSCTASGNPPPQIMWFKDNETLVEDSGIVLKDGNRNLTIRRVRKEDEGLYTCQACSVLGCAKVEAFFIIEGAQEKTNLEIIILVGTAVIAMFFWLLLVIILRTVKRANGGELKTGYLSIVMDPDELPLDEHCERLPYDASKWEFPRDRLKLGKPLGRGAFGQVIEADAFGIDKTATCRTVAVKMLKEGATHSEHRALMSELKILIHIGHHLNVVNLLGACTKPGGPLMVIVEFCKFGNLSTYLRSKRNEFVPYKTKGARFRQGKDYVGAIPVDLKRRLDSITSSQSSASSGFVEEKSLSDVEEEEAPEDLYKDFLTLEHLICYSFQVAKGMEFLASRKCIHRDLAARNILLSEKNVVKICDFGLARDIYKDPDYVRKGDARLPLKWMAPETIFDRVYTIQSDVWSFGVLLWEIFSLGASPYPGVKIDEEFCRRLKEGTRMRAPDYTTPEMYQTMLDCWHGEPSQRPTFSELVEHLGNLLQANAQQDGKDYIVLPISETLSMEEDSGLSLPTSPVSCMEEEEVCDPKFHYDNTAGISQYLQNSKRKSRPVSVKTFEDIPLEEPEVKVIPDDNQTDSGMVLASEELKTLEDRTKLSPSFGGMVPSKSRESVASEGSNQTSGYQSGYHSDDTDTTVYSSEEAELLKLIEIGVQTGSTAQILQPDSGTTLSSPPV
Sequence of Angiopoietin-1 receptor (Homo sapiens) (Q02763 whole entry): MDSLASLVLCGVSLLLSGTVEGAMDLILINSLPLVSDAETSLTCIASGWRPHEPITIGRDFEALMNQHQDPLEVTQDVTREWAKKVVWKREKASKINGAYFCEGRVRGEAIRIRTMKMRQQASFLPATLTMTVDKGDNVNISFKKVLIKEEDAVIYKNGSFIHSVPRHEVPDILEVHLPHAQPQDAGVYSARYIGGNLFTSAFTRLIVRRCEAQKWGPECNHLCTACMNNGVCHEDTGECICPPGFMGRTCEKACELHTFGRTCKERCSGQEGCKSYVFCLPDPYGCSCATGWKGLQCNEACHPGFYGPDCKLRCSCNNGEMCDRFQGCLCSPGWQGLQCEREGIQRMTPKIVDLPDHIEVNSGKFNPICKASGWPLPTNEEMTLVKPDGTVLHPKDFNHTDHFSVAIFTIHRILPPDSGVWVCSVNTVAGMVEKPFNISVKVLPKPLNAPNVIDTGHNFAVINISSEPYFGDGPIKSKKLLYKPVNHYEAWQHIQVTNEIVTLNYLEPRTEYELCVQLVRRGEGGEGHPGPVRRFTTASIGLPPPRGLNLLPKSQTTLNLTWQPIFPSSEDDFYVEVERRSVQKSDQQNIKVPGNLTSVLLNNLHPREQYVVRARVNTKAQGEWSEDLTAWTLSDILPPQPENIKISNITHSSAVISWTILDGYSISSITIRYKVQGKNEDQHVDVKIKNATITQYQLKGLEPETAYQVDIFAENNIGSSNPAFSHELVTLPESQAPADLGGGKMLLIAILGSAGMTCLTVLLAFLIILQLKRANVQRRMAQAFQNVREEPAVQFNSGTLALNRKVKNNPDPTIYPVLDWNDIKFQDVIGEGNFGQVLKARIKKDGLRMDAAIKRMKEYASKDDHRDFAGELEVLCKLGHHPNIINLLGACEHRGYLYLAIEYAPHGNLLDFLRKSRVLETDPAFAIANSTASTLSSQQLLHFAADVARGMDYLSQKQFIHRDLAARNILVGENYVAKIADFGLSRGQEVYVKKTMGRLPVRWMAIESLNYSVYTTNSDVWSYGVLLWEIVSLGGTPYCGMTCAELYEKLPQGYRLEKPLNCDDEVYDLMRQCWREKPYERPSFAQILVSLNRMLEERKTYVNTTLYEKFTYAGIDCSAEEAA
T2 sequence (P45983 whole entry): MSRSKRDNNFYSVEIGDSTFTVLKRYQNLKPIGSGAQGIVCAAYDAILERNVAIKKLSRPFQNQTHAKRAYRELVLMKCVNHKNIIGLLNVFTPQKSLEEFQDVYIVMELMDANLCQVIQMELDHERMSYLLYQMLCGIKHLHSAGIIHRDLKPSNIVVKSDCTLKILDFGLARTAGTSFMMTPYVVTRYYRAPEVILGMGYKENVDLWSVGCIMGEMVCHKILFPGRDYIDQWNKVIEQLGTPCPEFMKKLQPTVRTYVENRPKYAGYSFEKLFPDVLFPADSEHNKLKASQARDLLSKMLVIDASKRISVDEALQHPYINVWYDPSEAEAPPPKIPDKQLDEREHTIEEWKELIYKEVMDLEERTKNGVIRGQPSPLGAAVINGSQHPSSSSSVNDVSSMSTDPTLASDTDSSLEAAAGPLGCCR

Structure (SMILES): Cn1c(=O)c(Oc2ccc(F)cc2F)cc2cnc(Nc3ccc(N4CCC(O)CC4)cc3)nc21
- inhibition [1]: 100%
- inhibition [2]: 34%
- inhibition [3]: 100%
- inhibition [4]: 78%
- inhibition [5]: 50%
- inhibition [6]: 55%
- inhibition [7]: 22%
- inhibition [8]: 36%
- inhibition [9]: 22%
- inhibition [10]: 13%
- inhibition [11]: 100%
- inhibition [12]: 10%
- inhibition [13]: 100%
- inhibition [14]: 0%
- pIC50 [15]: < 4.52
- pIC50 [16]: 5.42
- Activity [17]: 0%
- Activity [18]: 29.6%
- inhibition [19]: 66%
- inhibition [20]: 100%
- inhibition [21]: 30%

Structure (SMILES): CN1CCN(c2ccc(Nc3ncc4cc(Oc5c(Cl)cccc5Cl)c(=O)n(C)c4n3)cc2)CC1
- inhibition [1]: 47%
- inhibition [2]: 8%
- inhibition [3]: 89%
- inhibition [4]: 42%
- inhibition [5]: 9%
- inhibition [6]: 7%
- inhibition [7]: 7%
- inhibition [8]: 18%
- inhibition [9]: 13%
- inhibition [10]: 8%
- inhibition [11]: 72%
- inhibition [12]: 3%
- inhibition [13]: 24%
- inhibition [14]: 15%
- pIC50 [15]: < 4.65
- pIC50 [16]: < 4.64
- Activity [17]: 13.2%
- Activity [18]: 45%
- inhibition [19]: 12%
- inhibition [20]: 41%
- inhibition [21]: 61%

Structure (SMILES): Cn1c(=O)c(Oc2ccc(F)cc2F)cc2cnc(NC3CCN(S(N)(=O)=O)CC3)nc21
- pIC50 [15]: < 4.52
- pIC50 [16]: 6.04
- Activity [17]: 0%
- Activity [18]: 30.5%

Structure (SMILES): CN(C)CCNc1ncc2cc(Oc3ccc(F)cc3F)c(=O)n(C)c2n1
- inhibition [1]: 0%
- inhibition [2]: 5%
- inhibition [3]: 51%
- inhibition [4]: 8%
- inhibition [5]: 7%
- inhibition [6]: 0%
- inhibition [7]: 5%
- inhibition [8]: 20%
- inhibition [9]: 1%
- inhibition [10]: 0%
- inhibition [11]: 6%
- inhibition [12]: 0%
- inhibition [13]: 1%
- inhibition [14]: 0%
- pIC50 [15]: < 4.52
- pIC50 [16]: < 4.64
- Activity [17]: 104%
- Activity [18]: 104%
- inhibition [19]: 7%
- inhibition [20]: 5%
- inhibition [21]: 17%

Structure (SMILES): Cn1c(=O)c(Oc2ccc(F)cc2F)cc2cnc(NC3CCN(S(C)(=O)=O)CC3)nc21
- inhibition [1]: 25%
- inhibition [2]: 5%
- inhibition [3]: 84%
- inhibition [4]: 0%
- inhibition [5]: 0%
- inhibition [6]: 0%
- inhibition [7]: 19%
- inhibition [8]: 5%
- inhibition [9]: 5%
- inhibition [10]: 10%
- inhibition [11]: 4%
- inhibition [12]: 2%
- inhibition [13]: 24%
- inhibition [14]: 2%
- pIC50 [15]: < 4.52
- pIC50 [16]: 6.19
- Activity [17]: 2.72%
- Activity [18]: 77.2%
- inhibition [19]: 32%
- inhibition [20]: 12%
- inhibition [21]: 62%

Structure (SMILES): Cn1c(=O)c(Oc2c(Cl)cccc2Cl)cc2cnc(NC3CCOCC3)nc21
- inhibition [1]: 4%
- inhibition [2]: 4%
- inhibition [3]: 33%
- inhibition [4]: 11%
- inhibition [5]: 3%
- inhibition [6]: 0%
- inhibition [7]: 24%
- inhibition [8]: 14%
- inhibition [9]: 0%
- inhibition [10]: 5%
- inhibition [11]: 8%
- inhibition [12]: 0%
- inhibition [13]: 1%
- inhibition [14]: 0%
- pIC50 [15]: < 4.52
- pIC50 [16]: 5.61
- Activity [17]: 8.05%
- Activity [18]: 55.2%
- inhibition [19]: 3%
- inhibition [20]: 0%
- inhibition [21]: 16%

Structure (SMILES): Cn1c(=O)c(Oc2ccc(F)cc2F)cc2cnc(NCCc3ccccn3)nc21
- inhibition [1]: 10%
- inhibition [2]: 6%
- inhibition [3]: 95%
- inhibition [4]: 19%
- inhibition [5]: 4%
- inhibition [6]: 0%
- inhibition [7]: 15%
- inhibition [8]: 22%
- inhibition [9]: 3%
- inhibition [10]: 8%
- inhibition [11]: 16%
- inhibition [12]: 0%
- inhibition [13]: 3%
- inhibition [14]: 0%
- pIC50 [15]: < 4.52
- pIC50 [16]: 5.17
- Activity [17]: 82%
- Activity [18]: 82%
- inhibition [19]: 4%
- inhibition [20]: 6%
- inhibition [21]: 17%

Structure (SMILES): Cn1c(=O)c(Oc2ccc(F)cc2F)cc2cnc(Nc3ccc(N4CCCCC4)cc3)nc21
- inhibition [1]: 35%
- inhibition [2]: 15%
- inhibition [3]: 99%
- inhibition [4]: 26%
- inhibition [5]: 7%
- inhibition [6]: 10%
- inhibition [7]: 33%
- inhibition [8]: 29%
- inhibition [9]: 24%
- inhibition [10]: 14%
- inhibition [11]: 28%
- inhibition [12]: 4%
- inhibition [13]: 20%
- inhibition [14]: 0%
- pIC50 [15]: < 4.52
- pIC50 [16]: < 4.64
- Activity [17]: 84%
- Activity [18]: 149%
- inhibition [19]: 14%
- inhibition [20]: 39%
- inhibition [21]: 22%

Structure (SMILES): CN1CCN(CCCNc2ncc3cc(Oc4ccc(F)cc4F)c(=O)n(C)c3n2)CC1
- inhibition [1]: 8%
- inhibition [2]: 4%
- inhibition [3]: 91%
- inhibition [4]: 23%
- inhibition [5]: 0%
- inhibition [6]: 0%
- inhibition [7]: 9%
- inhibition [8]: 2%
- inhibition [9]: 0%
- inhibition [10]: 13%
- inhibition [11]: 18%
- inhibition [12]: 0%
- inhibition [13]: 30%
- inhibition [14]: 12%
- pIC50 [15]: < 4.52
- pIC50 [16]: 4.72
- Activity [17]: 0%
- Activity [18]: 153%
- inhibition [19]: 6%
- inhibition [20]: 29%
- inhibition [21]: 6%

Structure (SMILES): CN1CCN(c2ccc(Nc3ncc4cc(Oc5ccc(F)cc5F)c(=O)n(C)c4n3)cc2)CC1
- inhibition [1]: 96%
- inhibition [2]: 20%
- inhibition [3]: 100%
- inhibition [4]: 74%
- inhibition [5]: 0%
- inhibition [6]: 41%
- inhibition [7]: 0%
- inhibition [8]: 0%
- inhibition [9]: -4%
- inhibition [10]: 12%
- inhibition [11]: 99%
- inhibition [12]: 5%
- inhibition [13]: 98%
- inhibition [14]: 12%
- pIC50 [15]: < 4.52
- pIC50 [16]: 5.48
- Activity [17]: 2.08%
- Activity [18]: 133%
- inhibition [19]: 54%
- inhibition [20]: 100%
- inhibition [21]: 61%
